In article PMC8540948, “Design and Synthesis of Newly Synthesized Acrylamide Derivatives as Potential Chemotherapeutic Agents against MCF-7 Breast Cancer Cell Line Lodged on PEGylated Bilosomal Nano-Vesicles for Improving Cytotoxic Activity” (Pharmaceuticals, 2021):

What was measured:
[1] = test system: normal breast cell line (MCF-10A); experiment: MTT cytotoxicity against normal breast cell line MCF-10A; format: cell-based; conditions: MTT assay
Protocol: Compounds 2–5d were evaluated for their cytotoxic activities against breast cancer MCF-7 cell line by using an MTT colorimetric assay. Cisplatin was used as reference drug in this study. […] Additionally, the therapeutic safety of N-(3-hydroxy-4-methoxy) aryl amide derivative 4e was determined by screening its cytotoxic activity against normal breast cell line (MCF-10A) using an MTT colorimetric assay.
(§1) Cytotoxic activity of the newly prepared acrylamide derivatives 2–5d were carried out against breast MCF-7 cancer cell line using the MTT assay method. Compound 4e was screened for its effects on normal breast cell line MCF-10A. Cells at density of 1 × 10^4 were seeded in a 96-well plate at 37 °C for 48 h under 5% CO2. After incubation, the cells were treated with different concentrations of the test compounds and incubated for 24 h. After 24 h of drug treatment, 20 μL of MTT solution at 5 mg/mL was applied and incubated for 4 h at 37 °C. Dimethyl sulphoxide (DMSO) in volume of 100 µL was added to each well to dissolve the purple formazan that had formed. The color intensity of the formazan product, which represents the growth condition of the cells, is quantified by using an ELISA plate reader (EXL 800, USA) at 570 nm absorbance. The experimental conditions were carried out with at least three replicates, and the experiments were repeated at least three times.

[2] = test system: breast cancer MCF-7 cell line; experiment: MTT cytotoxicity against breast cancer MCF-7 cell line; format: cell-based; conditions: MTT assay, 24 h drug treatment
Protocol: Compounds 2–5d were evaluated for their cytotoxic activities against breast cancer MCF-7 cell line by using an MTT colorimetric assay. Cisplatin was used as reference drug in this study. […] Additionally, the therapeutic safety of N-(3-hydroxy-4-methoxy) aryl amide derivative 4e was determined by screening its cytotoxic activity against normal breast cell line (MCF-10A) using an MTT colorimetric assay. […]
as §1

β-tubulin = β-tubulin inhibition percentage by ELISA (tubulin polymerization inhibition); format: biochemical; conditions: 5 μM concentration
MCF-7 cells = experiment: Cell cycle analysis by DNA flow cytometry; format: cell-based; conditions: MCF-7, 48 h, 4e at IC50 (2.11 μM), PTX 0.1 μM
Protocol: In order to study the mechanism of the cytotoxic activity of compound 4e, cell cycle analysis was investigated in breast cancer MCF-7 cells by DNA flow cytometry analysis at IC50 dose values of compound 4e for 48 h. Paclitaxel (PTX, 0.1 μM) was used as the reference drug in this study.
MCF-7 cells (2 × 10^5/well) were harvested and washed twice in PBS. After that, the cells were incubated at 37 °C and 5% CO2. The medium was replaced with DMSO 1% v/v containing the tested compound 4e (2.11 μM) and PTX (0.1 μM), then incubated for 48 h, washed twice in PBS, fixed with 70% ethanol, rinsed again with PBS and then stained with DNA fluorochrome PI for 15 min at 37 °C. The samples were analyzed by flow cytometry on a FACS Calibur flow cytometer (Becton and Dickinson, Heidelberg, Germany).

tubulin assembly = test system: tubulin assembly; parameters: method as in PMID 25721862; conditions: cited from earlier work

SMILES | melting point | IC50 ([2]; Homo sapiens, MCF7, 24 h) | also measured
N.N.[Cl][Pt][Cl] [Cisplatin, reference compound] | – | – | IC50 [1]: 22.62 ± 0.19 µM; IC50 [2]: 1.02 ± 0.12 µM
CCOC(=O)C(=Cc1ccco1)NC(=O)c1cc(OC)c(OC)c(OC)c1 [Compound 2, Ethyl 3-(Furan-2-yl)-2-(3,4,5-trimethoxybenzamido)acrylate] | 126 to 128 °C | > 50 µM | –
COc1cc(C(=O)NC(=Cc2ccco2)C(=O)NC(C)C)cc(OC)c1OC [Compound 3, N-[1-(Furan-2-yl)-3-(isopropylamino)-3-oxoprop-1-en-2-yl]-3,4,5-trimethoxybenzamide] | 168 to 170 °C | 4.73 ± 0.27 µM | –
COc1cc(C(=O)NC(=Cc2ccco2)C(=O)Nc2ccccc2C)cc(OC)c1OC [Compound 4a, N-[1-(Furan-2-yl)-3-oxo-3-(o-tolylamino)prop-1-en-2-yl]-3,4,5-trimethoxybenzamide] | 222 to 224 °C | 27.3 ± 1.21 µM | –
COc1cc(C(=O)NC(=Cc2ccco2)C(=O)Nc2cccc(C)c2)cc(OC)c1OC [Compound 4b, N-[1-(Furan-2-yl)-3-oxo-3-(m-tolylamino)prop-1-en-2-yl]-3,4,5-trimethoxybenzamide] | 217 to 219 °C | 10.4 ± 1.09 µM | –
COc1ccc(NC(=O)C(=Cc2ccco2)NC(=O)c2cc(OC)c(OC)c(OC)c2)cc1 [Compound 4c, N-[1-(Furan-2-yl)-3-(4-methoxyphenylamino)-3-oxoprop-1-en-2-yl]-3,4,5-trimethoxybenzamide] | 249 to 251 °C | 26.2 ± 1.21 µM | –
COc1cc(C(=O)NC(=Cc2ccco2)C(=O)Nc2ccc(O)cc2)cc(OC)c1OC [Compound 4d, N-[1-(Furan-2-yl)-3-(4-hydroxyphenylamino)-3-oxoprop-1-en-2-yl]-3,4,5-trimethoxybenzamide] | 214 to 216 °C | 18.4 ± 1.14 µM | –
COc1ccc(NC(=O)C(=Cc2ccco2)NC(=O)c2cc(OC)c(OC)c(OC)c2)cc1O [Compound 4e, N-[1-(Furan-2-yl)-3-(3-hydroxy-4-methoxyphenylamino)-3-oxoprop-1-en-2-yl]-3,4,5-trimethoxybenzamide] | – | 2.11 ± 0.19 µM | β-tubulin inhibition percentage (β-tubulin): 89%; IC50 ([1]; Homo sapiens): 29.3 ± 1.21 µM; percentage of cells in pre-G1 phase (MCF-7 cells; untreated control 1.73%): 24.62%; percentage of cells in G2/M phase (MCF-7 cells; untreated control 8.39%): 42.50%
COc1ccc(C(=O)/C=C/c2cc(C(=O)c3cc(OC)c(OC)c(OC)c3)ccc2OC)cc1N [Compound IV] | – | – | IC50 (tubulin assembly): 0.6 µM

More lines, main results first:

melting point | SMILES | IC50 ([2]; Homo sapiens, MCF7, 24 h) | also measured
175 to 177 °C | COc1cc(C(=O)NC(=Cc2ccco2)C(=O)NCc2cccc(C)c2)cc(OC)c1OC [Compound 5a, N-[1-(Furan-2-yl)-3-((3-methylbenzyl)amino)-3-oxoprop-1-en-2-yl]-3,4,5-trimethoxybenzamide] | 3.92 ± 0.21 µM | –
166 to 168 °C | COc1ccccc1CNC(=O)C(=Cc1ccco1)NC(=O)c1cc(OC)c(OC)c(OC)c1 [Compound 5b, N-[1-(Furan-2-yl)-3-((2-methoxybenzyl)amino)-3-oxoprop-1-en-2-yl]-3,4,5-trimethoxybenzamide] | 5.03 ± 1.01 µM | –
164 to 166 °C | COc1cccc(CNC(=O)C(=Cc2ccco2)NC(=O)c2cc(OC)c(OC)c(OC)c2)c1 [Compound 5c, N-[1-(Furan-2-yl)-3-(3-methoxybenzylamino)-3-oxoprop-1-en-2-yl]-3,4,5-trimethoxybenzamide] | 2.61 µM | IC50 [2]: 3.03 ± 0.39 µM
124 to 126 °C | COc1ccc(CNC(=O)C(=Cc2ccco2)NC(=O)c2cc(OC)c(OC)c(OC)c2)cc1OC [Compound 5d, N-[3-((3,4-Dimethoxybenzyl)amino)-1-(furan-2-yl)-3-oxoprop-1-en-2-yl]-3,4,5-trimethoxybenzamide] | 2.61 ± 0.32 µM | –
